Measured values published in PubChem BioAssay (NCI).
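Interpolation was linear, between the two tested concentrations surrounding the appropriate level; five concentrations were tested over 48 hours in 96-well plates. The concentration for full growth arrest is given as TGI.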

tested on: HOP-18 NSCLC; assay: NCI tumour cell line growth inhibition, 48 h

Structure (SMILES)	TGI [µM]
O=C(O)CCCCCOc1cccnc1/C=N/NC1=NCCN1	> 100
CCOc1ccc(/C=C(\Cl)c2ccc(OC)c(OC)c2)cc1	> 100
C=C1C(=O)OC2(C)C3CCC(C3)C12 (stereo unspecified)	> 100
O=C(Nc1nc2ccccc2n1Cc1ccccc1)NC12CC3CC(CC(C3)C1)C2	> 100
Cn1ccn2c3nc4ccccc4nc3c(=O)c(C#N)c12	> 100

tested on: RXF-631 renal; assay: NCI tumour cell line growth inhibition, 48 h

Structure (SMILES)	TGI [µM]
COC1=C(N=[N+]=[N-])C(=O)c2ncccc2C1=O	29.9
